Test results as given in ChEMBL document CHEMBL1156407, “The antiplasmodial activity of isolates from Ajuga remota” (J Nat Prod, 2002).
Calls of active or inactive are those of the source. The rule behind the calls is not given here.

Columns and labels:
Plasmodium falciparum [1] = assay: Antiplasmodial activity after 72 hrs against chloroquine-sensitive Plasmodium falciparum FCA10/GHA as LDH activity; format: functional, organism-based
[2] = Cytotoxicity against human A431 cells by MTT assay; format: cell-based, A-431; conditions: read-out: ED50 (the source's name)
[3] = Selectivity index, ratio of ED50 for human A431 cells to IC50 for chloroquine-sensitive Plasmodium falciparum FCA10/GHA; format: functional, A-431
Plasmodium falciparum [4] = assay: Antiplasmodial activity after 72 hrs against chloroquine-sensitive Plasmodium falciparum FCA10/GHA at 500 uM by LDH activity; format: functional, organism-based

| Structure (SMILES) | IC50 (Plasmodium falciparum [1]) [µM] | CC50 [2] [µM] | Ratio [3] | Activity (Plasmodium falciparum [4]) |
| --- | --- | --- | --- | --- |
| CC(C)C/C=C/C[C@H]1CC[C@@H]2[C@]1(C)CCC1[C@]23C=C[C@]2(C[C@@H](O)CC[C@]12C)OO3 (some centres undefined) | 8.2 | > 23 | >3 |  |
| CC(=O)OC[C@@]12[C@@H](OC(C)=O)C[C@@H](C)[C@](C)(CCC3=CC(=O)OC3)[C@H]1CCC[C@]21CO1 [AJUGARIN I] | 23 | > 88 | >4 |  |
| CC(=O)O[C@@]1(C)C[C@@H](O)[C@]2(O)C=CO[C@@H](O[C@@H]3O[C@H](CO)[C@@H](O)[C@H](O)[C@H]3O)[C@@H]21 |  | 310 |  | inactive |
| O=c1[nH]cc(F)c(=O)[nH]1 [FLUOROURACIL] |  | 44 |  |  |
